# Experimental data as given in patent US20260167623A1 (NIKANG THERAPEUTICS, INC., priority 2022, published 2026).
# Biological target: T1, CDK2 (Homo sapiens, UniProt P24941)
# T1 construct: High-Throughput Measurement of Cellular Endogenous CDK2; endogenous in cells; host or cells: OVCAR3
# Test: Inhibition of CDK2: phospho-Rb (S807/811) HTRF measurement in OVCAR3 cells, 24 h
# Assay type: cell-based
# Conditions: 24 h compound treatment, read-out: pRB_OVCAR3_24h
# Method in brief: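 IC50 came from a four-parameter fit of DMSO-normalized TR-FRET ratios (665/620 nm) reporting phospho-Rb S807/811. Lysates were taken from OVCAR3 cultures treated 24 h with compound (0.3 to 10,000 nM) and incubated 4 h at room temperature with the antibody pair.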
row,SMILES,IC50
1,"Cn1nc(N2CCC(=O)NC2=O)c2ccc(C3CCN(CCC4CCCN(S(=O)(=O)N5CCC(Nc6ncc(C(F)(F)F)cn6)CC5)C4)CC3)cc21 (stereo not shown) [Example 32, 1-(1-methyl-6-(1-(2-(1-((4-((5-(trifluoromethyl)pyrimidin-2-yl)amino)-piperidin-1-yl)sulfonyl)piperidin-3-yl)ethyl)piperidin-4-yl)-1H-indazol-3-yl)dihydropyrimidine-2,4(1H,3H)-dione]",500 to 2500 nM
2,"Cn1nc(N2CCC(=O)NC2=O)c2ccc(C3CCN(CC4CCN(c5cccc(S(=O)(=O)N6[C@@H]7CC[C@H]6CC(Nc6ncc(Cl)cn6)C7)c5)CC4)CC3)cc21 (stereo partly drawn) [Example 227, 1-(6-(1-((1-(3-(((1R,5S)-3-((5-chloropyrimidin-2-yl)amino)-8-azabicyclo[3.2.1]octan-8-yl)sulfonyl)phenyl)piperidin-4-yl)methyl)piperidin-4-yl)-1-methyl-1H-indazol-3-yl)dihydropyrimidine-2,4(1H,3H)-dione]",500 to 2500 nM
3,"Cn1c(=O)n(C2CCC(=O)NC2=O)c2cccc(C3CCN(CC4CCN(c5cc(C(F)(F)F)cc(S(=O)(=O)N6CCC(Nc7ncc(Cl)cn7)CC6)c5)CC4)CC3)c21 (stereo not shown) [Example 173, 3-(4-(1-((1-(3-((4-((5-chloropyrimidin-2-yl)amino)piperidin-1-yl)sulfonyl)-5-(trifluoromethyl)phenyl)piperidin-4-yl)methyl)piperidin-4-yl)-3-methyl-2-oxo-2,3-dihydro-1H-benzo[d]imidazol-1-yl)piperidine-2,6-dione]",500 to 2500 nM
4,"CN(Cc1cccc(S(=O)(=O)N2CCC(Nc3ncc(C(F)(F)F)cn3)CC2)c1)CC1CCN(c2ccc3c(N4CCC(=O)NC4=O)nn(C)c3c2)CC1 [Example 88, 1-(1-methyl-6-(4-((methyl(3-((4-((5-(trifluoromethyl)pyrimidin-2-yl)amino)-piperidin-1-yl)sulfonyl)benzyl)amino)-methyl)piperidin-1-yl)-1H-indazol-3-yl)dihydropyrimidine-2,4(1H,3H)-dione]",500 to 2500 nM
5,"Cn1nc(N2CCC(=O)NC2=O)c2ccc(C3CCN(CC4CCN(c5ccc(F)c(S(=O)(=O)N6CCC(Nc7ncc(Cl)cn7)CC6)c5)CC4)CC3)cc21 [Example 189, 1-(6-(1-((1-(3-((4-((5-chloropyrimidin-2-yl)amino)piperidin-1-yl)sulfonyl)-4-fluorophenyl)piperidin-4-yl)methyl)piperidin-4-yl)-1-methyl-1H-indazol-3-yl)dihydropyrimidine-2,4(1H,3H)-dione]",> 2500 nM
6,"Cn1nc(N2CCC(=O)NC2=O)c2ccc(C3CCN(Cc4cccc(S(=O)(=O)N5CC(Nc6ncc(C(F)(F)F)cn6)C5)c4)CC3)cc21 [Example 154, 1-(1-methyl-6-(1-(3-((3-((5-(trifluoromethyl)pyrimidin-2-yl)amino)azetidin-1-yl)sulfonyl)benzyl)piperidin-4-yl)-1H-indazol-3-yl)dihydropyrimidine-2,4(1H,3H)-dione]",> 2500 nM
7,"Cn1nc(N2CCC(=O)NC2=O)c2ccc(C3CCN(Cc4ccc(S(=O)(=O)N5CCC(Nc6ncc(OC(F)F)cn6)CC5)cc4)CC3)c(F)c21 [Example 242, 1-(6-(1-(4-((4-((5-(difluoromethoxy)pyrimidin-2-yl)amino)piperidin-1-yl)sulfonyl)benzyl)piperidin-4-yl)-7-fluoro-1-methyl-1H-indazol-3-yl)dihydropyrimidine-2,4(1H,3H)-dione]",500 to 2500 nM
8,"Cn1nc(N2CCC(=O)NC2=O)c2ccc(C3CCN(C[C@@H]4CCCN4c4cc(S(=O)(=O)N5CCC(Nc6ncc(OC(F)F)cn6)CC5)ccc4C#N)CC3)cc21 [Example 256, (S)-4-((4-((5-(difluoromethoxy)pyrimidin-2-yl)amino)piperidin-1-yl)sulfonyl)-2-(2-((4-(3-(2,4-dioxotetrahydropyrimidin-1(2H)-yl)-1-methyl-1H-indazol-6-yl)piperidin-1-yl)methyl)pyrrolidin-1-yl)benzonitrile]",100 to 500 nM
9,"O=C1CCN(c2ccc(N3CCN(CC4CCN(c5cccc(S(=O)(=O)N6CCC(Nc7ncc(C(F)(F)F)cn7)CC6)c5)CC4)CC3)cc2)C(=O)N1 [Example 113, 1-(4-(4-((1-(3-((4-((5-(trifluoromethyl)-pyrimidin-2-yl)amino)piperidin-1-yl)sulfonyl)phenyl)piperidin-4-yl)methyl)piperazin-1-yl)phenyl)-dihydropyrimidine-2,4(1H,3H)-dione]",100 to 500 nM
10,"Cn1nc(N2CCC(=O)NC2=O)c2ccc(N3CCC(NCc4cccc(S(=O)(=O)N5CCC(Nc6ncc(C(F)(F)F)cn6)CC5)c4)CC3)cc21 [Example 85, 1-(1-methyl-6-(4-((3-((4-((5-(trifluoro-methyl)pyrimidin-2-yl)amino)piperidin-1-yl)sulfonyl)benzyl)amino)piperidin-1-yl)-1H-indazol-3-yl)dihydropyrimidine-2,4(1H,3H)-dione]",500 to 2500 nM
11,"Cn1nc(N2CCC(=O)NC2=O)c2ccc(C3CCN(Cc4cccc(S(=O)(=O)N5CCC(Nc6ncc(C(F)(F)F)cn6)CC5)c4)CC3(F)F)cc21 (stereo not shown) [Example 3, 1-(6-(3,3-difluoro-1-(3-((4-((5-(trifluoromethyl)pyrimidin-2-yl)amino)-piperidin-1-yl)sulfonyl)benzyl)-piperidin-4-yl)-1-methyl-1H-indazol-3-yl)dihydropyrimidine-2,4(1H,3H)-dione]",100 to 500 nM
12,"Cn1nc(N2CCC(=O)NC2=O)c2ccc(N3CCN(CC4CCN(c5cccc(S(=O)(=O)N6CCC(Nc7ncc(Cl)cn7)CC6)c5)CC4)C4CC43)cc21 (stereo not shown) [Example 143, 1-(6-(5-((1-(3-((4-((5-chloropyrimidin-2-yl)amino)piperidin-1-yl)sulfonyl)phenyl)-piperidin-4-yl)methyl)-2,5-diazabicyclo-[4.1.0]heptan-2-yl)-1-methyl-1H-indazol-3-yl)dihydropyrimidine-2,4(1H,3H)-dione]",500 to 2500 nM
13,"Cn1nc(N2CCC(=O)NC2=O)c2ccc(CN3CCN(c4cccc(S(=O)(=O)N5CCC(Nc6ncc(C(F)(F)F)cn6)CC5)c4)CC3)cc21 [Example 179, 1-(1-methyl-6-((4-(3-((4-((5-(trifluoromethyl)pyrimidin-2-yl)amino)piperidin-1-yl)sulfonyl)phenyl)piperazin-1-yl)methyl)-1H-indazol-3-yl)dihydropyrimidine-2,4(1H,3H)-dione]",500 to 2500 nM
14,Cn1nc(N2CCC(=O)NC2=O)c2ccc(C3CCN(CC4CCN(c5cccc(S(=O)(=O)[C@H]6CC[C@H](Nc7ncc(C(F)(F)F)cn7)CC6)c5)CC4)CC3)cc21 [Example 240],> 2500 nM
15,"Cn1nc(N2CCC(=O)NC2=O)c2ccc(C3CCN(Cc4ccc(C5CCCN(S(=O)(=O)N6CCC(Nc7ncc(Cl)cn7)CC6)C5)cc4)CC3)cc21 (stereo not shown) [Example 157, 1-(6-(1-(4-(1-((4-((5-chloropyrimidin-2-yl)amino)piperidin-1-yl)sulfonyl)piperidin-3-yl)benzyl)piperidin-4-yl)-1-methyl-1H-indazol-3-yl)dihydropyrimidine-2,4(1H,3H)-dione]",500 to 2500 nM

# Continued, values first:
row,IC50,SMILES
1,500 to 2500 nM,"Cc1cnc(NC2CCN(S(=O)(=O)c3cccc(CN4CCC(c5ccc6c(N7CCC(=O)NC7=O)nn(C)c6c5)CC4)c3)CC2)nc1 [Example 60, 1-(1-methyl-6-(1-(3-((4-((5-methyl-pyrimidin-2-yl)amino)piperidin-1-yl)sulfonyl)benzyl)piperidin-4-yl)-1H-indazol-3-yl)dihydropyrimidine-2,4(1H,3H)-dione]"
2,1 to 100 nM,"Cn1nc(N2CCC(=O)NC2=O)c2ccc(C3CCN(CC4CC5(C4)CN(c4cccc(S(=O)(=O)N6CCC(Nc7ncc(Cl)cn7)CC6)c4)C5)CC3)cc21 [Example 132, 1-(6-(1-((2-(3-((4-((5-chloropyrimidin-2-yl)amino)piperidin-1-yl)sulfonyl)phenyl)-2-azaspiro[3.3]heptan-6-yl)methyl)piperidin-4-yl)-1-methyl-1H-indazol-3-yl)dihydropyrimidine-2,4(1H,3H)-dione]"
3,500 to 2500 nM,"Cn1nc(N2CCC(=O)NC2=O)c2ccc(C3CCN(C(c4cccc(S(=O)(=O)N5CCC(Nc6ncc(Cl)cn6)CC5)c4)C(F)F)CC3)cc21 (stereo not shown) [Example 30, 1-(6-(1-(1-(3-((4-((5-chloropyrimidin-2-yl)amino)piperidin-1-yl)sulfonyl)phenyl)-2,2-difluoroethyl)piperidin-4-yl)-1-methyl-1H-indazol-3-yl)dihydropyrimidine-2,4(1H,3H)-dione]"
4,500 to 2500 nM,"Cn1nc(N2CCC(=O)NC2=O)c2ccc(C3CN(Cc4cccc(S(=O)(=O)N5CCC(Nc6ncc(OC(F)F)cn6)CC5)c4)C3)cc21 [Example 81, 1-(6-(1-(3-((4-((5-(difluoromethoxy)-pyrimidin-2-yl)amino)piperidin-1-yl)sulfonyl)benzyl)azetidin-3-yl)-1-methyl-1H-indazol-3-yl)dihydropyrimidine-2,4(1H,3H)-dione]"
5,100 to 500 nM,"Cn1nc(N2CCC(=O)NC2=O)c2ccc(C3CCN(Cc4cc(S(=O)(=O)N5CCC(Nc6ncc(OC(F)F)cn6)CC5)ccc4C#N)CC3)cc21 [Example 169, 4-((4-((5-(difluoromethoxy)pyrimidin-2-yl)amino)piperidin-1-yl)sulfonyl)-2-((4-(3-(2,4-dioxotetrahydropyrimidin-1(2H)-yl)-1-methyl-1H-indazol-6-yl)piperidin-1-yl)methyl)benzonitrile]"
6,500 to 2500 nM,"Cn1nc(N2CCC(=O)NC2=O)c2ccc(C#CCN3CCN(c4cccc(S(=O)(=O)N5CCC(Nc6ncc(Cl)cn6)CC5)c4)CC3)cc21 [Example 231, 1-(6-(3-(4-(3-((4-((5-chloropyrimidin-2-yl)amino)piperidin-1-yl)sulfonyl)phenyl)piperazin-1-yl)prop-1-yn-1-yl)-1-methyl-1H-indazol-3-yl)dihydropyrimidine-2,4(1H,3H)-dione]"
7,100 to 500 nM,"Cn1nc(N2CCC(=O)NC2=O)c2ccc(N3CCN(Cc4cccc(S(=O)(=O)N5CCC(Nc6ncc(Cl)cn6)CC5)c4)CC3)cc21 [Example 25, 1-(6-(4-(3-((4-((5-chloropyrimidin-2-yl)amino)piperidin-1-yl)sulfonyl)benzyl)-piperazin-1-yl)-1-methyl-1H-indazol-3-yl)dihydropyrimidine-2,4(1H,3H)-dione]"
